Experimental data reported in paper PMC7432809, “Antimicrobial Activity of Small Synthetic Peptides Based on the Marine Peptide Turgencin A: Prediction of Antimicrobial Peptide Sequences in a Natural Peptide and Strategy for Optimization of Potency” (International Journal of Molecular Sciences, 2020).
Where no end group is shown, it is not given here.

Key:
[1] = tested on: B. subtilis 168 (pCSS962); test: Real-time membrane integrity assay (luciferase, D-luciferin); format: cell-based, Bacillus subtilis; conditions: lowest concentration tested
From the text: (§1) Based on the results from antibacterial screening and the bacterial killing experiment, StAMP-6-10 were further studied for their immediate effect on the membrane integrity and viability on B. subtilis 168 and E. coli K12. In the integrity assay, both bacteria are carrying the luciferase lucGR gene within the plasmid pCSS962. When a compound disrupts the membrane, externally added D-luciferin can diffuse into the cells and function as a substrate for the luciferase enzyme. This, in turn, causes the emission of light as relative luminescence units (RLU), a signal whose strength is relative to the degree of membrane disruption in living cells. If the test compound affects the membrane sufficiently to cause bacterial death, the RLU signal will increase until the bacterial ATP storage is empty. At this time, the RLU signal will decrease in line with the decreasing ATP concentrations, as the enzymatic reaction gradually stops. […] Following membrane disruption, the RLU will reach its peak and start to decrease due to reduced cell numbers. In the assay setup used herein, RLU was measured over a period of 3 min. The short time period was selected as many membrane disruptive compounds usually affect the bacterial membranes immediately. […]

E. coli K12 (pCSS962) = test: as above; format: cell-based, Escherichia coli; conditions: lowest concentration tested
From the text: as §1

B. subtilis 168 = test: Real-time bacterial cell viability assay (lux operon); format: cell-based, Bacillus subtilis; conditions: lowest concentration tested
From the text: (§2) A real-time cell viability assay was used to investigate the bactericidal effect of StAMP-6-10. B. subtilis 168 contains a chromosomally integrated lux operon, and E. coli K12 a plasmid-borne lux operon. Both strains emit light as long as they have an active metabolism. If a compound reduces the metabolic activity of the bacteria it will reduce the viability of the cells. […] The decrease in light emission caused by StAMP-8-10 shown in both assays confirmed that these three peptides killed both strains at 50 µg/mL, but not as rapidly as the control chlorhexidine. The same activity observed for StAMP-8-10 in the membrane integrity assay was also observed in both viability assays (Figures S7–S12). […] Only at the lowest concentration tested (0.8 µg/mL), was there no observed membrane activity for these assays.
(§3) A real-time cell viability assay (modified from) was performed using B. subtilis 168 carrying an optimized luxABCDE operon controlled by the promoter Pveg, and E. coli K12 carrying the plasmid pCGLS-11 [53] with the luxCDABE operon from Xenorhabdus luminescence. The procedure was conducted as previously described. The bacteria (~5 × 10^7 bacteria/mL) were subjected to ranging concentrations of StAMP-6-10 (50–3.1 µg/mL) and the positive control to chlorhexidine acetate (assay concentrations 100–1.6 µg/mL). MQ-H2O was used as a negative control. […]

E. coli K12 (pCGLS-11) = test: as above; format: cell-based, Escherichia coli; conditions: lowest concentration tested
From the text: as §2, §3

Bacillus megaterium = test: microbe, parasite or virus in culture; format: cell-based; conditions: Bacillus, 24 h
Experimental: (§4) The synthesized peptides were screened for antibacterial activity against five strains of G+ bacteria: B. subtilis (Bs, ATCC 23857), C. glutamicum (Cg, ATCC 13032), S. aureus (Sa, ATCC 9144), Micrococcus luteus (Ml), B. megaterium (Bm) (the last two were obtained from professor Olaf B. Styrvold, UiT The Arctic University of Norway).
(§5) Two strains of G- bacteria, P. aeruginosa (Pa, ATCC 27853) and E. coli (Ec, ATCC 25922), were also used. Cultures stored at -80 °C in glycerol were transferred to Müller–Hinton plates (MH, Difco Laboratories, Detroit, MI, USA) and incubated for 24 h at 35 °C. Colonies of each strain were transferred to 5 mL liquid MH medium and left shaking (600 rpm) at room temperature overnight. An aliquot of actively growing bacteria (20 µL) was inoculated in 5 mL MH medium and left shaking for 2 h at room temperature. In order to have a sensitive bioassay, the bacterial cultures were diluted with medium to only 2.5–3 × 10^4 bacteria/mL and an aliquot of 50 µL was added to each well in 96 microwell plates (Thermo Fisher Scientific, Roskilde, Denmark) preloaded with peptide solution (50 µL). The antibacterial assays were performed as previously described. The microtiter plates were incubated for 24 h at 35 °C with optical density (595 nm) recorded every hour using an Envision 2103 multilabel reader, controlled by a Wallac Envision manager (PerkinElmer, Waltham, MA, USA). The minimum inhibitory concentration (MIC) was defined as the sample concentration showing an optical density less than 10% of the negative (growth) control, consisting of bacteria and MQ-H2O. Oxytetracycline (concentrations ranging from 20–0.02 µg/mL, Sigma-Aldrich) and indolicidin (concentration ranging from 200–0.2 µg/mL, Sigma-Aldrich) served as a positive (inhibition) control. The synthetic peptides were tested for antibacterial activity in concentrations ranging from 250 to 0.5 µg/mL in two-fold dilutions. All tests were performed in triplicates.

[2] = tested on: Bacillus subtilis (ATCC 23857); test: microbe, parasite or virus in culture; format: cell-based; conditions: ATCC 23857, 24 h
Experimental: as §4, §5

[3] = tested on: Corynebacterium glutamicum (ATCC 13032); test: microbe, parasite or virus in culture; format: cell-based; conditions: ATCC 13032, 24 h
Experimental: as §4, §5

Micrococcus luteus = test: microbe, parasite or virus in culture; format: cell-based; conditions: 24 h
Experimental: as §4, §5

[4] = tested on: Staphylococcus aureus (ATCC 9144); test: microbe, parasite or virus in culture; format: cell-based; conditions: ATCC 9144, 24 h
Experimental: as §4, §5

[5] = tested on: Escherichia coli (ATCC 25922); test: microbe, parasite or virus in culture; format: cell-based; conditions: ATCC 25922, 24 h
Experimental: as §5

[6] = tested on: Pseudomonas aeruginosa (ATCC 27853); test: microbe, parasite or virus in culture; format: cell-based; conditions: ATCC 27853, 24 h
Experimental: as §5

Aureobasidium pullulans = test: microbe, parasite or virus in culture; format: cell-based; conditions: 48 h
Experimental: (§6) StAMP-1–11 were screened for antifungal activity against C. albicans (Ca, ATCC 10231), A. pullulans (Ap) and Rhodotorula sp. (Rh) (the last two were obtained from professor Arne Tronsmo, The Norwegian University of Life Sciences, Ås, Norway). The antifungal assay was performed as previously described with a few modifications. Briefly, fungal spores were dissolved in potato dextrose broth (Difco Laboratories) with 2% D(+)-glucose (Merck, Darmstadt, Germany) to a concentration of 4 × 10^5 spores/mL. The spores (50 µL) were inoculated on 96 microwell plates (Thermo Fisher Scientific) containing the synthetic peptides (50 µL) and controls (water or antibiotic). The peptides were diluted in MQ-H2O at final concentrations ranging from 250–3.9 µg/mL in two-fold serial dilutions. Triclosan (Sigma-Aldrich, Steinheim, Germany) was used as a positive (antifungal) control (32–0.25 µg/mL), and MQ-H2O as a negative (growth) control. Cultures were grown in room temperature for 24 h (Ca) and 48 h (Ap and Rh). Growth inhibition was determined by measuring OD values at 600 nm by a microplate reader (Synergy H1 Hybrid Multi-Mode Reader, BioTek, Winooski, VT, USA). […] All experiments were done in triplicate.

[7] = tested on: Candida albicans (ATCC 10231); test: microbe, parasite or virus in culture; format: cell-based; conditions: ATCC 10231, 24 h
Experimental: as §6

Rhodotorula sp. = test: microbe, parasite or virus in culture; format: cell-based; conditions: 48 h
Experimental: as §6

G+ strains = test: Antibacterial assay, MIC range over G+ strains; format: cell-based; conditions: range over the five G+ test strains
Experimental: as §4
as §5, with “The minimum inhibitory concentration (MIC) was defined as the sample concentration showing an optical density less than 10% of the negative (growth) control, consisting of bacteria and MQ-H2O. Oxytetracycline (concentrations ranging from 20–0.02 µg/mL, Sigma-Aldrich) and indolicidin (concentration ranging from 200–0.2 µg/mL, Sigma-Aldrich) served as a positive (inhibition) control. The synthetic peptides were tested for antibacterial activity in concentrations ranging from 250 to 0.5 µg/mL in two-fold dilutions. All tests were performed in triplicates.” left out

G- strains = test: Antibacterial assay, MIC range over G- strains; format: cell-based; conditions: range over the two G- test strains
Experimental: as §4
as §5, with “The minimum inhibitory concentration (MIC) was defined as the sample concentration showing an optical density less than 10% of the negative (growth) control, consisting of bacteria and MQ-H2O. Oxytetracycline (concentrations ranging from 20–0.02 µg/mL, Sigma-Aldrich) and indolicidin (concentration ranging from 200–0.2 µg/mL, Sigma-Aldrich) served as a positive (inhibition) control. The synthetic peptides were tested for antibacterial activity in concentrations ranging from 250 to 0.5 µg/mL in two-fold dilutions. All tests were performed in triplicates.” left out

three fungal strains = format: cell-based; conditions: 24 h
Experimental: as §6, with “Cultures were grown in room temperature for 24 h (Ca) and 48 h (Ap and Rh).” left out

[8] = tested on: all seven bacterial test strains; format: cell-based; conditions: 24 h
Experimental: as §4
as §5, with “The minimum inhibitory concentration (MIC) was defined as the sample concentration showing an optical density less than 10% of the negative (growth) control, consisting of bacteria and MQ-H2O. Oxytetracycline (concentrations ranging from 20–0.02 µg/mL, Sigma-Aldrich) and indolicidin (concentration ranging from 200–0.2 µg/mL, Sigma-Aldrich) served as a positive (inhibition) control. The synthetic peptides were tested for antibacterial activity in concentrations ranging from 250 to 0.5 µg/mL in two-fold dilutions. All tests were performed in triplicates.” left out

Compound | concentration with no observed membrane activity [1] [µg/mL] | concentration with no observed membrane activity (E. coli K12 (pCSS962)) [µg/mL] | concentration with no observed membrane activity (B. subtilis 168) [µg/mL] | concentration with no observed membrane activity (E. coli K12 (pCGLS-11)) [µg/mL] | Antimicrobial Activity (MIC) Bm (Bacillus megaterium) [µg/mL] | Antimicrobial Activity (MIC) Bs [2] [µg/mL] | Antimicrobial Activity (MIC) Cg [3] [µg/mL] | Antimicrobial Activity (MIC) Ml (Micrococcus luteus) [µg/mL] | Antimicrobial Activity (MIC) Sa [4] [µg/mL] | Antimicrobial Activity (MIC) Ec [5] [µg/mL] | Antimicrobial Activity (MIC) Pa [6] [µg/mL] | Antimicrobial Activity (MIC) Ap (Aureobasidium pullulans) [µg/mL] | Antimicrobial Activity (MIC) Ca [7] [µg/mL] | Antimicrobial Activity (MIC) Rh (Rhodotorula sp.) [µg/mL] | MIC values, range against G+ strains (G+ strains) [µg/mL] | MIC values, range against G- strains (G- strains) [µg/mL] | MIC, range against the three fungal strains (three fungal strains) [µg/mL] | MIC values, range against all seven bacterial test strains [8] [µg/mL]
[H]/N=C(\N/C(=N/[H])NCCCCCCNC(=N)NC(=N)Nc1ccc(Cl)cc1)Nc1ccc(Cl)cc1 [Chlorhexidine] | 0.8 | 0.8 | 0.8 | 0.8 |  |  |  |  |  |  |  |  |  |  |  |  |  | 
GKKPWWWKAK-NH2 [StAMP-7] |  |  |  |  | 1.0 | 3.9 | 2.0 | 31.3 | 125 | 31.3 | 250 | 15.6 | 31.3 | 15.6 | 1.0 to 125 | 31.3 to 250 |  | 
GKKWWWWKAK-NH2 [StAMP-8] |  |  |  |  | 3.9 | 7.8 | 7.8 | 15.6 | 125 | 62.5 | 125 | 7.8 | 15.6 | 15.6 |  |  | 7.8 to 15.6 | 
GRRPWWWRAR-NH2 [StAMP-9] |  |  |  |  | 1.0 | 3.9 | 2.0 | 3.9 | 7.8 | 7.8 | 31.3 | 31.3 | 31.3 | 15.6 |  |  |  | 1.0 to 31.3
GKKPWGWKAK-NH2 [StAMP-3] |  |  |  |  | 3.9 | >250 | 15.6 | 250 | >250 | >250 | >250 | 62.5 | 125 | 62.5 |  |  |  | 
GKKPGWWKAK-NH2 [StAMP-4] |  |  |  |  | 3.9 | 125 | 3.9 | 125 | >250 | >250 | >250 | 62.5 | 62.5 | 31.3 |  |  |  | 
